{"source": "patent US8716493B2", "about": "“Multicyclic compounds and the use thereof” (Cephalon, Inc., priority 2000, dated 2014)", "data": [{"target": "recombinant human PARP (Homo sapiens, UniProt P09874)", "sequence (P09874 whole entry)": "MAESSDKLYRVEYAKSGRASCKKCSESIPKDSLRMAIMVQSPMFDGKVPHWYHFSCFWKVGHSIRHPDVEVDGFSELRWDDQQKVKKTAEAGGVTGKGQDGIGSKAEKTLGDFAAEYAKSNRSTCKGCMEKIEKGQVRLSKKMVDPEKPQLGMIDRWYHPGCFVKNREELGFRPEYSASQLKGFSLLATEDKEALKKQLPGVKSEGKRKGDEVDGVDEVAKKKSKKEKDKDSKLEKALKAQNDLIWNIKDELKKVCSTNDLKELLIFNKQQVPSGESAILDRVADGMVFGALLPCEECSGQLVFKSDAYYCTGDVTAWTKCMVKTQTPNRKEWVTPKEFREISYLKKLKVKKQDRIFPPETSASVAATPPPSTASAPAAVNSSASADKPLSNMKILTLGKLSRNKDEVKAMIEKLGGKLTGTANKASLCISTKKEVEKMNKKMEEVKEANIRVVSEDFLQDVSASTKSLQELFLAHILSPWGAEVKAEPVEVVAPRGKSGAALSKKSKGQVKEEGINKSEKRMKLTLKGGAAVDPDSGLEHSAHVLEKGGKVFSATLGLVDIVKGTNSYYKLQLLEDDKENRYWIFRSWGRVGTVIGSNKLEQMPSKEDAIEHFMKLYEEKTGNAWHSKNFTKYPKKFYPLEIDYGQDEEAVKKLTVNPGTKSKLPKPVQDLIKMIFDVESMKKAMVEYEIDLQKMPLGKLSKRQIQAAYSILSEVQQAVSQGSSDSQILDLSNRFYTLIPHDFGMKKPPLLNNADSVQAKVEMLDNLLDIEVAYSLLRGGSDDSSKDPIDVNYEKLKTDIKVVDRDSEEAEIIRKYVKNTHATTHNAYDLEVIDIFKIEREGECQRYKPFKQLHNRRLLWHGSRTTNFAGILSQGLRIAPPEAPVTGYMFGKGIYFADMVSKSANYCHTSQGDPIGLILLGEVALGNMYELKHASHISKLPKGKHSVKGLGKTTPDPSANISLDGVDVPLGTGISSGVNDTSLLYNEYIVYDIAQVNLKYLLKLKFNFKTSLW", "assay": "Measurement of PARP enzymatic activity (transfer of radiolabeled ADP-ribose from NAD+ to protein acceptor)", "format": "biochemical", "conditions": "PARP IC50 (nM), Table 2", "procedure": "(§1) PARP activity was monitored by transfer of radiolabeled ADP-ribose units from [^32]NAD^+ to a protein acceptor such as histone or PARP itself. […] The reactions were initiated by the addition of 100 μM NAD^+ supplemented with 2 uCi [^32]NAD^+/mL and maintained at room temperature for 12 minutes. […] The amount of acid-insoluble radioactivity, corresponding to polyADP-ribosylated protein, was quantitated in a Wallac MicroBeta scintillation counter.\n(§2) Single-point inhibition data were calculated by comparing PARP, VEGFR2, or MLK3 activity in the presence of inhibitor to activity in the presence of DMSO only. Inhibition curves for compounds were generated by plotting percent inhibition versus log10 of the concentration of compound. IC50 values were calculated by nonlinear regression using the sigmoidal dose-response (variable slope) equation in GraphPad Prism as follows: y=bottom+(top−bottom)/(1+10^(log IC50^−x)*Hillslope) where y is the % activity at a given concentration of compound, x is the logarithm of the concentration of compound, bottom is the % inhibition at the lowest compound concentration tested, and top is the % inhibition at the highest compound concentration examined. The values for bottom and top were fixed at 0 and 100, respectively. IC50 values were reported as the average of at least three separate determinations.\n(§3) For some compounds, inhibiting data is presented as percent inhibition at a specified concentration. Compounds are tabulated together with compound number, substituents, and enzyme inhibition data.", "units": {"IC50": "nM"}, "values": [{"smiles": "O=C1NC(=O)c2c1c1c(c3[nH]c4ccc(-c5csc(CNC(=O)C6CCCC6)n5)cc4c23)CCC1", "note": "[Compound 3x]", "IC50": 52}]}, {"target": "recombinant human PARP (Homo sapiens, UniProt P09874)", "assay": "Measurement of PARP enzymatic activity (transfer of radiolabeled ADP-ribose from NAD+ to protein acceptor)", "format": "biochemical", "conditions": "PARP IC50 (nM), Table 8", "procedure": "as §1, §2, §3", "units": {"IC50": "nM"}, "values": [{"smiles": "O=C(NCCc1ccccn1)Oc1ccc2[nH]c3c4c(c5c(c3c2c1)C(=O)NC5=O)CCC4", "note": "[Compound 15m]", "IC50": 31}]}, {"target": "recombinant human PARP (Homo sapiens, UniProt P09874)", "assay": "Measurement of PARP enzymatic activity (transfer of radiolabeled ADP-ribose from NAD+ to protein acceptor)", "format": "biochemical", "conditions": "Table 2; read-out: PARP IC50", "procedure": "as §1, §2, §3", "units": {"IC50": "nM"}, "values": [{"smiles": "O=C(CCC(=O)N1CCOCC1)c1ccc2[nH]c3c4c(c5c(c3c2c1)C(=O)NC5=O)CCC4", "note": "[Compound 4f]", "IC50": 13}, {"smiles": "CCc1ccc2[nH]c3c4c(c5c(c3c2c1)C(=O)NC5=O)CCC4", "note": "[Compound 2az]", "IC50": 116}, {"smiles": "O=C(O)CCCC(=O)NCc1ccc2[nH]c3c4c(c5c(c3c2c1)C(=O)NC5=O)CCC4", "note": "[Compound 2ac, 3-(N-(4-(Carboxy)butanoyl)aminomethyl)-5,7,8,9,10,11-hexahydrocyclopent[a]-pyrrolo[3,4-c]carbazole-5(6H), 7-dione]", "IC50": 48}, {"smiles": "O=C(O)CCCC(=O)c1ccc2[nH]c3c4c(c5c(c3c2c1)C(=O)NC5=O)CCC4", "note": "[Compound 4n]", "IC50": 2}, {"smiles": "CC(C)NCc1ccc2[nH]c3c4c(c5c(c3c2c1)C(=O)NC5=O)CCC4", "note": "[Compound 2br]", "IC50": 25}, {"smiles": "O=C1NC(=O)c2c1c1c(c3[nH]c4ccc(F)cc4c23)CCC1", "note": "[Compound 2c]", "IC50": 39}, {"smiles": "CC(C)(C)OC(=O)N[C@@H](CCCNc1nc(-c2ccc3[nH]c4c5c(c6c(c4c3c2)C(=O)NC6=O)CCC5)cs1)C(=O)OC(C)(C)C", "note": "[Compound 3e]", "IC50": 46}, {"smiles": "O=C1NC(=O)c2c1c1c(c3[nH]c4ccc(Cl)cc4c23)CCC1", "note": "[Compound 2b]", "IC50": 39}, {"smiles": "O=C(O)CCC(=O)c1ccc2[nH]c3c4c(c5c(c3c2c1)C(=O)NC5=O)CCC4", "note": "[Compound 2m]", "IC50": 3}, {"smiles": "CC(C)C(=O)NCc1nc(-c2ccc3[nH]c4c5c(c6c(c4c3c2)C(=O)NC6=O)CCC5)cs1", "note": "[Compound 3t]", "IC50": 32}, {"smiles": "O=C1CCC(c2ccc3[nH]c4c5c(c6c(c4c3c2)C(=O)NC6=O)CCC5)=NN1", "note": "[Compound 4l]", "IC50": 17}, {"smiles": "NCCc1ccc2[nH]c3c4c(c5c(c3c2c1)C(=O)NC5=O)CCC4", "note": "[Compound 2be]", "IC50": 36}, {"smiles": "CN1N=C(c2ccc3[nH]c4c5c(c6c(c4c3c2)C(=O)NC6=O)CCC5)CCC1=O", "note": "[Compound 4m]", "IC50": 12}, {"smiles": "CC(=O)c1ccc2[nH]c3c4c(c5c(c3c2c1)C(=O)NC5=O)CCC4", "note": "[Compound 2d]", "IC50": 17}, {"smiles": "CC(C)(C)C(=O)OCc1nc(-c2ccc3[nH]c4c5c(c6c(c4c3c2)C(=O)NC6=O)CCC5)cs1", "note": "[Compound 3y]", "IC50": 60}, {"smiles": "CN(C)CCNC(=O)c1ccc2[nH]c3c4c(c5c(c3c2c1)C(=O)NC5=O)CCC4", "note": "[Compound 2cg]", "IC50": 31}, {"smiles": "O=C1NC(=O)c2c1c1c(c3[nH]c4ccc(CN(Cc5ccccc5)Cc5ccccc5)cc4c23)CCC1", "note": "[Compound 2bo]", "IC50": 293}, {"smiles": "O=C(Cn1cnnn1)NCc1ccc2[nH]c3c4c(c5c(c3c2c1)C(=O)NC5=O)CCC4", "note": "[Compound 2by]", "IC50": 14}, {"smiles": "CC(C)(C)OC(=O)Cc1nc(-c2ccc3[nH]c4c5c(c6c(c4c3c2)C(=O)NC6=O)CCC5)cs1", "note": "[Compound 3q]", "IC50": 29}, {"smiles": "CNCc1ccc2[nH]c3c4c(c5c(c3c2c1)C(=O)NC5=O)CCC4", "note": "[Compound 2bt]", "IC50": 25}]}, {"target": "recombinant human PARP (Homo sapiens, UniProt P09874)", "assay": "Measurement of PARP enzymatic activity (transfer of radiolabeled ADP-ribose from NAD+ to protein acceptor)", "format": "biochemical", "conditions": "Table 4; read-out: PARP IC50", "procedure": "as §1, §2, §3", "units": {"IC50": "nM"}, "values": [{"smiles": "N#Cc1c[nH]c2c3c(c4c(c12)C(=O)NC4=O)CCC3", "note": "[Compound 8d, 3-Cyano-1,6,7,8-tetrahydrocyclopent[g]indole-4,5-dicarboxylate imide]", "IC50": 6}]}, {"target": "recombinant human PARP (Homo sapiens, UniProt P09874)", "assay": "Measurement of PARP enzymatic activity (transfer of radiolabeled ADP-ribose from NAD+ to protein acceptor)", "format": "biochemical", "conditions": "Table 18; read-out: PARP IC50", "procedure": "as §1, §2, §3", "units": {"IC50": "nM"}, "values": [{"smiles": "CO[n+]1cccc2c3c4c(c5c(c3[nH]c21)CCC5)C(=O)NC4=O", "note": "[Compound 8o]", "IC50": 4}, {"smiles": "COc1c(I)ccc2[nH]c3c4c(c5c(c3c12)C(=O)NC5=O)CCC4", "note": "[Compound 14n]", "IC50": 126}, {"smiles": "CCOc1ccnc2[nH]c3c4c(c5c(c3c12)C(=O)NC5=O)CCC4", "note": "[Compound 8y]", "IC50": 5}, {"smiles": "O=C1NC(=O)c2c1c1c(c3[nH]c4c(ccc[n+]4[O-])c23)CCC1", "note": "[Compound 8l]", "IC50": 38}, {"smiles": "COc1cccc2[nH]c3c4c(c5c(c3c12)C(=O)N(CN1CCOCC1)C5=O)CCC4", "note": "[Compound 16d]", "IC50": 11}, {"smiles": "CN(C)CN1C(=O)c2c3c(c4[nH]c5ccccc5c4c2C1=O)CCC3", "note": "[Compound 16i]", "IC50": 53}]}]}
